Test results reported in ChEMBL document CHEMBL1136500, “1,3-dihydrobenzo[c]furan nucleoside analogues: additional studies of the thymine derivative” (Bioorg Med Chem Lett, 2003).
Calls of active or inactive are those of the source. The rule behind the calls is not given here.

Legend:
[1] = target: Human immunodeficiency virus type 1 reverse transcriptase (Human immunodeficiency virus 1) (UniProt Q72547); assay: Inhibitory activity against human immunodeficiency virus-1 reverse transcriptase (HIV-1 RT) at a concentration up to 10 uM; IA=Inactive
[2] = Partition coefficient (logP); format: physicochemical; details: octanol/water
[3] = Half life at pH 1.2; format: ADME; details: buffer
[4] = Half life at pH 7.3; format: ADME; details: buffer
[5] = Half life at pH 2.0; format: ADME; details: buffer
[6] = target: Human immunodeficiency virus type 1 reverse transcriptase (Human immunodeficiency virus 1) (UniProt Q72547); assay: Inhibitory activity against human immunodeficiency virus-1 reverse transcriptase (HIV-1 RT)
[7] = target: Human immunodeficiency virus type 1 reverse transcriptase (Human immunodeficiency virus 1) (UniProt Q72547); assay: Inhibitory activity against human immunodeficiency virus-1 reverse transcriptase (HIV-1 RT) at a concentration up to 100 uM; IA-Inactive

Activity [1] | logP [2] | half-life [3] [days] | half-life [4] [days] | half-life [5] [days] | IC90 [6] [nM] | Activity [7] | Structure (SMILES)
inactive | 0.55 | 18 | 34 | 31 | – | – | Cc1cn([C@@H]2O[C@H](CO)c3ccccc32)c(=O)[nH]c1=O
– | -0.77 | 3 | 6 | 5 | 100 | – | Cc1cn([C@H]2C=C[C@@H](CO)O2)c(=O)[nH]c1=O [STAVUDINE]
– | – | – | – | – | – | inactive | Cc1cn([C@@H]2O[C@H](COP(=O)(O)OP(=O)(O)OP(=O)(O)O)c3ccccc32)c(=O)[nH]c1=O
